# Molecular target: T1, Nav1.7 (or SCN9A) channel (Homo sapiens, UniProt Q15858)
# T1 construct: expressed in transfected cells
# Assay: Nav1.7 PatchXpress 7000 automated electrophysiology assay (HEK cells stably expressing hSCN9A)
# Format: cell-based
# Conditions: voltage-clamped at V1/2 of inactivation, read-out: Nav1.7 EIC50
# Description: The ability of the compounds of formula (I) to block the Nav1.7 (or SCN9A) channel was measured using the assays described below.
# Human Embryonic Kidney (HEK) cells were transfected with an hSCN9A construct using lipofectamine reagent (Invitrogen), using standard techniques. Cells stably expressing the hSCN9A constructs were identified by their resistance to G-418 (400 μg/ml). Clones were screened for expression using the whole-cell voltage-clamp technique.
# HEK cells stably transfected with hSCN9A were maintained in DMEM medium supplemented with 10% heat-inactivated fetal bovine serum and 400 μg/ml G-418 in an incubator at 37° C. with a humidified atmosphere of 10% CO2. For HTS, cells were harvested from flasks by trypsinization and replated in an appropriate multi-well plate (typically 96 or 384 wells/plate) such that confluence would be achieved within 24 hours of plating. For electrophysiological studies, cells were removed from the culture flask by brief trypsinization and re-plated at low density onto glass cover slips. Cells were typically used for electrophysiological experiments within 24 to 72 hours after plating.
# Cover slips containing HEK cells expressing hSCN9A were placed in a bath on the stage of an inverted microscope and perfused (approximately 1 ml/minutes) with extracellular solution of the following composition: 138 mM NaCl, 2 mM CaCl2, 5.4 mM KCl, 1 mM MgCl2, 10 mM glucose, and 10 mM HEPES, pH 7.4, with NaOH. […] The osmolarity of the extracellular and intracellular solutions was 300 mOsm/kg and 295 mOsm/kg, respectively. All recordings were made at room temperature (22-24° C.) using AXOPATCH 200B amplifiers and PCLAMP software (Axon Instruments, Burlingame, Calif.).
# HEK cells stably transfected with hSCN9A were viewed under Hoffman contrast optics and placed in front of an array of flow pipes emitting either control or compound-containing extracellular solutions. All compounds were dissolved in dimethyl sulfoxide to make 10 mM stock solutions, which were then diluted into extracellular solution to attain the final concentrations desired. […] The voltage-dependence of inactivation was determined by applying a series of depolarizing prepulses (8 sec long in 10 mV increments) from a negative holding potential. The voltage was then immediately stepped to 0 mV to assess the magnitude of the sodium current. Currents elicited at 0 mV were plotted as a function of prepulse potential to allow estimation of the voltage at which 50% of the channels were inactivated (midpoint of inactivation or V1/2). Compounds were tested for their ability to inhibit hSCN9A sodium channels by activating the channel with a 20 msec voltage step to 0 mV following an 8 second conditioning prepulse to the empirically determined V1/2. Compound effect (% inhibition) was determined by difference in current amplitude before and after application of test compounds. For ease of comparison, “estimated IC-50” (EIC50) values were calculated from single point electrophysiology data by the following equation, (tested concentration, uM)×(100-% inhibition/% inhibition). Inhibition values <20% and >80% were excluded from the calculation.
# Electrophysiological assays were conducted with PatchXpress 7000 hardware and associated software (Molecular Devices Corp). All assay buffers and solutions were identical to those used in conventional whole-cell voltage clamp experiments described above. hSCN9A cells were grown as above to 50%-80% confluency and harvested by trypsinization. Trypsinized cells were washed and resuspended in extracellular buffer at a concentration of 1×10^6 cells/ml. The onboard liquid handling facility of the PatchXpress was used for dispensing cells and application of test compounds. Determination of the voltage midpoint of inactivation was as described for conventional whole-cell recordings. Cells were then voltage-clamped to the empirically determined V1/2 and current was activated by a 20 msec voltage step to 0 mV. […]
# T1 sequence (Q15858 whole entry): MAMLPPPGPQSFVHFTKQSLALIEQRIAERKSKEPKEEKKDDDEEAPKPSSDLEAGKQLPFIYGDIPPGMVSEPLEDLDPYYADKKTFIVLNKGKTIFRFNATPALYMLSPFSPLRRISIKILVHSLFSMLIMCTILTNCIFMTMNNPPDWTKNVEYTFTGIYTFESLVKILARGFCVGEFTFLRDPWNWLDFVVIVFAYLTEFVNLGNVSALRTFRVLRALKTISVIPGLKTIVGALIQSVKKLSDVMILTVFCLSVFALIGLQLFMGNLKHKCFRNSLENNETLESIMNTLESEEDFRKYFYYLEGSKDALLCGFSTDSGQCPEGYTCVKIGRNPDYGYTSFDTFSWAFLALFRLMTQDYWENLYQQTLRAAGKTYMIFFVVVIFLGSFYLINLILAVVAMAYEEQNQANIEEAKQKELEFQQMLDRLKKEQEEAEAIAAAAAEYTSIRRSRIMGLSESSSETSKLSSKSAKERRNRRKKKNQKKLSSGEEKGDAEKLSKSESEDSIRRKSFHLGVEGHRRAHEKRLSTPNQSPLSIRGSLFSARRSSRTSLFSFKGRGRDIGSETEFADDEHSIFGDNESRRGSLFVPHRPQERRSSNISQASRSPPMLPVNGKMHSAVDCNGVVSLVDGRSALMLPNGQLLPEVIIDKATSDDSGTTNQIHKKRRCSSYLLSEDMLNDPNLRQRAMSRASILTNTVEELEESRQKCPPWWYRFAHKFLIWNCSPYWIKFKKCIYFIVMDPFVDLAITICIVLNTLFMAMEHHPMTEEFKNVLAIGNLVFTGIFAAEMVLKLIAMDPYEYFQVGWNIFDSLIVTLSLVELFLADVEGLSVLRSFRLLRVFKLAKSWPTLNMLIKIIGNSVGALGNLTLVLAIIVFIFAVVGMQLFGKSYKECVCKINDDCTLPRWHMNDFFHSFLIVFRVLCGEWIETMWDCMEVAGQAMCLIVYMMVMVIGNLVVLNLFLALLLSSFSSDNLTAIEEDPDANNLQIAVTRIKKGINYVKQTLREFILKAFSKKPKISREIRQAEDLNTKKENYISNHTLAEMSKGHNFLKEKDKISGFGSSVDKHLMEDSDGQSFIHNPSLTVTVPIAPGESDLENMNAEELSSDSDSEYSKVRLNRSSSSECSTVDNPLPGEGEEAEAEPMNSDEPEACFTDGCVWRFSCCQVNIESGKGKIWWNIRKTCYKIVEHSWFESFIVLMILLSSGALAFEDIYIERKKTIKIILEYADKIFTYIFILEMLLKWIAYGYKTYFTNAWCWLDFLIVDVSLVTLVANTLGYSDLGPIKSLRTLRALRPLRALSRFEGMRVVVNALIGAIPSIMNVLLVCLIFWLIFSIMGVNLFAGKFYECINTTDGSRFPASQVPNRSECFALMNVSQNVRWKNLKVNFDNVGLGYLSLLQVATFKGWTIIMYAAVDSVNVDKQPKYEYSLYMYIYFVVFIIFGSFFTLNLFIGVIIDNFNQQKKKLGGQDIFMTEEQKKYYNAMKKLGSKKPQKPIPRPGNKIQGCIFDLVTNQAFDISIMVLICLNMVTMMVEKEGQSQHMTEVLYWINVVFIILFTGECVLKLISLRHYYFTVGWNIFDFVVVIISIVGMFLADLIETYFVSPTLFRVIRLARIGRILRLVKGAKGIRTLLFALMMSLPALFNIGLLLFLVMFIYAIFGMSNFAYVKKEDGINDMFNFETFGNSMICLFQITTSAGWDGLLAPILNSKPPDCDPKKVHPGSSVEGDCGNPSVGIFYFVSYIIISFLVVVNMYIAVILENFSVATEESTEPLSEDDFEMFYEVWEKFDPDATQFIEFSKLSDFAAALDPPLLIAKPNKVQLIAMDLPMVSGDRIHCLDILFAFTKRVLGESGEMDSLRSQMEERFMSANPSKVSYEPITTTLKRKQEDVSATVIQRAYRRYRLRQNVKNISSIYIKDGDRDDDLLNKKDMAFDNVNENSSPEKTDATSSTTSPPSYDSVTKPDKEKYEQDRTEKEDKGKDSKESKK
row,SMILES,IC50 [nM]
1,"COc1cc(Oc2ccc(F)c(Cl)c2)ccc1C(=O)NS(C)(=O)=O [Example 233, 4-(3-chloro-4-fluorophenoxy)-2-methoxy-N-(methylsulfonyl)benzamide]",8200
2,"CS(=O)(=O)NC(=O)c1cc(F)c(Oc2cccc(C#N)c2)cc1F [Example 125, 4-(3-cyanophenoxy)-2,5-difluoro-N-(methylsulfonyl)benzamide]",> 3000
3,"COc1cc(Cl)ccc1Oc1cc(OC)c(C(=O)NS(C)(=O)=O)cc1F [Example 61, 4-(4-chloro-2-methoxyphenoxy)-5-fluoro-2-methoxy-N-(methylsulfonyl)benzamide]",> 10000
4,"COc1ccc(Cl)c(Oc2cc(F)c(C(=O)NS(C)(=O)=O)cc2F)c1 [Example 109, 4-(2-chloro-5-methoxyphenoxy)-2,5-difluoro-N-(methylsulfonyl)benzamide]",> 1000
5,"COc1ccc(Oc2cc(F)c(C(=O)NS(C)(=O)=O)cc2F)c(Cl)c1 [Example 146, 4-(2-chloro-4-methoxyphenoxy)-2,5-difluoro-N-(methylsulfonyl)benzamide]",> 3000
6,"CS(=O)(=O)NC(=O)c1cc(F)c(Oc2ccc(OC(F)F)c(Cl)c2)cc1F [Example 13, 4-[3-chloro-4-(difluoromethoxy)phenoxy]-2,5-difluoro-N-(methylsulfonyl)benzamide]",2500
7,"Cc1cc(Oc2ccc(C(=O)NS(C)(=O)=O)cc2F)ccc1F [Example 218, 3-fluoro-4-(4-fluoro-3-methylphenoxy)-N-(methylsulfonyl)benzamide]",2800
8,"Cc1cc(Oc2ccc(C(=O)NS(C)(=O)=O)cc2)ccc1F [Example 199, 4-(4-fluoro-3-methylphenoxy)-N-(methylsulfonyl)benzamide]",7600
9,"Cc1ccccc1Oc1cc(F)c(C(=O)NS(C)(=O)=O)cc1Cl [Example 297, 5-chloro-2-fluoro-4-(2-methylphenoxy)-N-(methylsulfonyl)benzamide]",2300
10,"CCc1cccc(Oc2cc(F)c(C(=O)NS(C)(=O)=O)cc2F)c1 [Example 147, 4-(3-ethylphenoxy)-2,5-difluoro-N-(methylsulfonyl)benzamide]",> 3000
11,"CCc1cc(F)ccc1Oc1ccc(C(=O)NS(C)(=O)=O)cc1C#N [Example 22, 3-cyano-4-(2-ethyl-4-fluorophenoxy)-N-(methylsulfonyl)benzamide]",5200
12,"COc1cc(Cl)ccc1Oc1ccc(C(=O)NS(C)(=O)=O)cc1 [Example 175, 4-(4-chloro-2-methoxyphenoxy)-N-(methylsulfonyl)benzamide]",> 10000
13,"Cc1cc(Oc2cc(F)c(C(=O)NS(C)(=O)=O)cc2F)cc(C)c1C#N [Example 112, 4-(4-cyano-3,5-dimethylphenoxy)-2,5-difluoro-N-(methylsulfonyl)benzamide]",> 3000
14,"CS(=O)(=O)NC(=O)c1cc(F)c(Oc2ccccc2OC(F)(F)F)cc1F [Example 103, 2,5-difluoro-N-(methylsulfonyl)-4-[2-(trifluoromethoxy)phenoxy]benzamide]",3200
15,"CS(=O)(=O)NC(=O)c1ccc(Oc2ccc(F)c(Cl)c2)cc1 [Example 200, 4-(3-chloro-4-fluorophenoxy)-N-(methylsulfonyl)benzamide]",8100
16,"CS(=O)(=O)NC(=O)c1ccc(Oc2ccc(Cl)c(C(F)(F)F)c2)cc1Cl [Example 43, 2-chloro-4-[4-chloro-3-(trifluoromethyl)phenoxy]-N-(methylsulfonyl)benzamide]",5800
17,"CS(=O)(=O)NC(=O)c1cc(Cl)c(Oc2ccccc2C#N)cc1F [Example 293, 5-chloro-4-(2-cyanophenoxy)-2-fluoro-N-(methylsulfonyl)benzamide]",> 3000
18,"COc1cc(C#N)ccc1Oc1cc(F)c(C(=O)NS(C)(=O)=O)cc1F [Example 135, 4-(4-cyano-2-methoxyphenoxy)-2,5-difluoro-N-(methylsulfonyl)benzamide]",> 3000
19,"COc1cc(Oc2ccc(F)c(C)c2)ccc1C(=O)NS(C)(=O)=O [Example 216, 4-(4-fluoro-3-methylphenoxy)-2-methoxy-N-(methylsulfonyl)benzamide]",11000
20,"COc1ccc(F)cc1Oc1ccc(C(=O)NS(C)(=O)=O)cc1 [Example 188, 4-(5-fluoro-2-methoxyphenoxy)-N-(methylsulfonyl)benzamide]",> 10000

# The next lines start with the values.
row,IC50 [nM],SMILES
1,320,"CS(=O)(=O)NC(=O)c1ccc(Nc2cccc(C(F)(F)F)c2)cc1 [Example 321, N-(methylsulfonyl)-4-(3-(trifluoromethyl)phenylamino)benzamide]"
2,1600,"CS(=O)(=O)NC(=O)c1ccc(Oc2ccc(OC(F)(F)F)cc2)cc1 [Example 168, N-(methylsulfonyl)-4-[4-(trifluoromethoxy)phenoxy]benzamide]"
3,890,"CS(=O)(=O)NC(=O)c1ccc(Oc2ccc(Cl)c(C(F)(F)F)c2)c(C#N)c1 [Example 62, 4-[4-chloro-3-(trifluoromethyl)phenoxy]-3-cyano-N-(methylsulfonyl)benzamide]"
4,270,"CS(=O)(=O)NC(=O)c1ccc(Oc2cccc(C(F)(F)F)c2)c(Cl)c1 [Example 266, 3-chloro-N-(methylsulfonyl)-4-[3-(trifluoromethyl)phenoxy]benzamide]"
5,1100,"COc1ccc(OC(F)(F)F)cc1Oc1cc(F)c(C(=O)NS(C)(=O)=O)cc1F [Example 314, 2,5-difluoro-4-[2-methoxy-5-(trifluoromethoxy)phenoxy]-N-(methylsulfonyl)benzamide]"
6,1700,"CS(=O)(=O)NC(=O)c1ccc(Oc2ccc3ccccc3c2)c(C#N)c1 [Example 269, 3-cyano-N-(methylsulfonyl)-4-(2-naphthyloxy)benzamide]"
7,660,"CS(=O)(=O)NC(=O)c1ccc(Oc2ccc(F)cc2)c(Cl)c1 [Example 41, 3-chloro-4-(4-fluorophenoxy)-N-(methylsulfonyl)benzamide]"
8,1100,"CS(=O)(=O)NC(=O)c1ccc(Oc2cccc(F)c2)c(Cl)c1 [Example 262, 3-chloro-4-(3-fluorophenoxy)-N-(methylsulfonyl)benzamide]"
9,140,"CS(=O)(=O)NC(=O)c1ccc(Oc2ccc(Cl)c(Cl)c2)c(Cl)c1 [Example 82, 3-chloro-4-(3,4-dichlorophenoxy)-N-(methylsulfonyl)benzamide]"
10,860,"CS(=O)(=O)NC(=O)c1ccc(Oc2ccc(Cl)c(Cl)c2)cc1F [Example 28, 4-(3,4-dichlorophenoxy)-2-fluoro-N-(methylsulfonyl)benzamide]"
11,230,"Cc1cc(C(=O)NS(C)(=O)=O)ccc1Oc1ccc(Cl)c(Cl)c1 [Example 81, 4-(3,4-dichlorophenoxy)-3-methyl-N-(methylsulfonyl)benzamide]"
12,370,"CCc1cc(F)ccc1Oc1cc(F)c(C(=O)NS(C)(=O)=O)cc1Cl [Example 18, 5-chloro-4-(2-ethyl-4-fluorophenoxy)-2-fluoro-N-(methylsulfonyl)benzamide]"
13,2100,"CS(=O)(=O)NC(=O)c1ccc(Oc2cccc3ccccc23)c(Cl)c1 [Example 258, 3-chloro-N-(methylsulfonyl)-4-(1-naphthyloxy)benzamide]"
14,520,"CS(=O)(=O)NC(=O)c1cc(F)c(Oc2ccc(Cl)c(OC(F)F)c2)cc1F [Example 49, 4-[4-chloro-3-(difluoromethoxy)phenoxy]-2,5-difluoro-N-(methylsulfonyl)benzamide]"
15,47,"CS(=O)(=O)NC(=O)c1cc(Cl)c(Oc2ccc(C(F)(F)F)c(Cl)c2)cc1F [Example 9, 5-chloro-4-(3-chloro-4-(trifluoromethyl)phenoxy)-2-fluoro-N-(methylsulfonyl)benzamide]"
16,950,"CS(=O)(=O)NC(=O)c1ccc(Oc2ccc(Cl)c(Cl)c2)c(C#N)c1 [Example 29, 3-cyano-4-(3,4-dichlorophenoxy)-N-(methylsulfonyl)benzamide]"

# Source: patent US8685977B2, “Chemical compounds” (Pfizer Limited, priority 2010, dated 2014)
